Test results reported in the supplement of paper PMC10307832.

Tests used:
Test in all cases: relative viability (nuclei count vs DMSO), 5 days (fraction); higher = more cells survive
OSI-027 + Linsitinib = compound: COc1cccc2cc(-c3nc([C@H]4CC[C@H](C(=O)O)CC4)n4ncnc(N)c34)[nH]c12 [OSI-027] + C[C@]1(O)C[C@@H](c2nc(-c3ccc4ccc(-c5ccccc5)nc4c3)c3c(N)nccn32)C1 [Linsitinib] (partner 1 µM)
How it was run: (§1)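 Lung cancer cell lines were seeded in 1536-well plates and dosed by pin tool the next day, with either a single drug or a fixed anchor-drug dose combined with five library-drug doses (not always all listed) spaced in √10 steps. Five days later, one step fixed the cells and stained their nuclei (final 0.05% Triton X-100, 1% formaldehyde, 1 ug/ml Hoechst), and nuclei were counted on 4× images. Relative viability is the nuclei count in treated wells divided by the count in vehicle wells, and each value is the median of duplicate plates.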

Vemurafenib + Linsitinib = compound: CCCS(=O)(=O)Nc1ccc(F)c(C(=O)c2c[nH]c3ncc(-c4ccc(Cl)cc4)cc23)c1F [Vemurafenib] + C[C@]1(O)C[C@@H](c2nc(-c3ccc4ccc(-c5ccccc5)nc4c3)c3c(N)nccn32)C1 [Linsitinib] (partner 1 µM)
How it was run: as §1

Vemurafenib + Tozasertib = compound: CCCS(=O)(=O)Nc1ccc(F)c(C(=O)c2c[nH]c3ncc(-c4ccc(Cl)cc4)cc23)c1F [Vemurafenib] + Cc1cc(Nc2cc(N3CCN(C)CC3)nc(Sc3ccc(NC(=O)C4CC4)cc3)n2)n[nH]1 [Tozasertib] (partner 0.1 µM)
How it was run: as §1

Alpelisib + Bortezomib = compound: Cc1nc(NC(=O)N2CCC[C@H]2C(N)=O)sc1-c1ccnc(C(C)(C)C(F)(F)F)c1 [Alpelisib] + CC(C)C[C@H](NC(=O)[C@H](Cc1ccccc1)NC(=O)c1cnccn1)B(O)O [Bortezomib] (partner 0.002 µM)
How it was run: as §1

| Cell Line | relative viability (OSI-027 + Linsitinib; first compound 0.01 µM) | relative viability (OSI-027 + Linsitinib; first compound 0.03162 µM) | relative viability (OSI-027 + Linsitinib; first compound 0.1 µM) | relative viability (OSI-027 + Linsitinib; first compound 0.3162 µM) | relative viability (OSI-027 + Linsitinib; first compound 1 µM) | relative viability (Vemurafenib + Linsitinib; first compound 0.03162 µM) | relative viability (Vemurafenib + Linsitinib; first compound 0.3162 µM) | relative viability (Vemurafenib + Linsitinib; first compound 1 µM) | relative viability (Vemurafenib + Tozasertib; first compound 0.03162 µM) | relative viability (Vemurafenib + Tozasertib; first compound 0.3162 µM) | relative viability (Vemurafenib + Tozasertib; first compound 1 µM) | relative viability (Alpelisib + Bortezomib; first compound 0.04 µM) | relative viability (Alpelisib + Bortezomib; first compound 0.1265 µM) | relative viability (Alpelisib + Bortezomib; first compound 0.4 µM) | relative viability (Alpelisib + Bortezomib; first compound 1.265 µM) | relative viability (Alpelisib + Bortezomib; first compound 4 µM) | relative viability (Vemurafenib + Linsitinib; first compound 0.1 µM) | relative viability (Vemurafenib + Tozasertib; first compound 0.1 µM) |
| --- | --- | --- | --- | --- | --- | --- | --- | --- | --- | --- | --- | --- | --- | --- | --- | --- | --- | --- |
| HCC-827 | 0.979 | 1.03 | 0.935 | 0.943 | 0.552 | 0.878 | 0.924 | 0.926 | 0.397 | 0.42 | 0.41 | 1.1 | 0.904 | 1.28 | 1.02 | 0.942 |  |  |
| HOP-62 | 0.952 | 1.2 | 1.04 | 0.712 | 0.359 | 0.78 | 0.94 | 0.841 | 0.418 | 0.332 | 0.389 | 0.749 | 0.397 | 0.986 | 0.811 | 0.807 | 1.01 | 0.372 |
| IA-LM | 0.31 | 0.383 | 0.41 | 0.263 | 0.131 | 0.537 | 0.603 | 0.554 |  |  |  | 0.985 | 0.794 | 0.794 | 0.698 | 0.728 | 0.53 |  |
| LC-2-ad | 0.847 | 0.751 | 0.803 | 0.694 | 0.291 | 0.801 | 0.873 | 0.749 | 0.396 |  | 0.44 | 1.05 | 1.01 | 1.09 | 0.955 | 0.844 | 0.755 | 0.466 |
| LCLC-97TM1 | 0.19 | 0.182 | 0.139 | 0.117 | 0.123 | 0.181 | 0.175 | 0.157 | 0.206 | 0.269 | 0.166 | 0.682 |  | 0.86 | 0.384 | 0.237 | 0.212 | 0.268 |
| LCLC-103H | 0.994 | 0.968 | 1.07 | 0.906 | 1.05 | 1.09 | 1.06 | 1.18 | 0.476 | 0.493 | 0.487 | 0.819 | 0.964 | 1.03 | 1.05 | 0.831 | 1.04 | 0.395 |
| LK-2 | 0.523 | 0.184 | 0.396 | 0.289 | 0.138 | 0.409 | 0.811 | 0.417 | 0.158 | 0.187 | 0.155 |  |  |  |  |  | 0.525 | 0.177 |
| LOU-NH91 | 0.954 | 0.902 | 0.808 | 0.69 | 0.521 | 0.864 |  | 1.01 | 0.599 |  | 0.705 | 0.478 | 0.457 | 0.51 | 0.537 | 0.474 | 0.535 |  |
| LU99A | 0.51 | 0.471 | 0.355 | 0.243 | 0.198 | 0.484 | 0.586 | 0.479 | 0.245 | 0.316 | 0.264 | 1.07 | 1.12 | 1.14 | 0.874 | 0.614 | 0.445 | 0.256 |
